Results on three compounds are retold here after ChEMBL document CHEMBL1909046, “DrugMatrix in vitro pharmacology data”.

pIC50, pKi: −log10 of the molar value.

Targets include Cytochrome P450 2C19 (Homo sapiens, UniProt P33261); Cytochrome P450 2C9 (Homo sapiens, UniProt P11712); Cytochrome P450 2D6 (Homo sapiens, UniProt P10635).
The target of data set [1] is Sodium-dependent noradrenaline transporter (Homo sapiens, UniProt P23975). The data set is described as follows: DRUGMATRIX: Norepinephrine Transporter radioligand binding (ligand: [125I] RTI-55). In kind it is cell membranes, MDCK, Membrane. Conditions: Not Active = under 50% inhibition at 10 µM; for IC50: mdck.
Sequence of Sodium-dependent noradrenaline transporter (P23975 whole entry): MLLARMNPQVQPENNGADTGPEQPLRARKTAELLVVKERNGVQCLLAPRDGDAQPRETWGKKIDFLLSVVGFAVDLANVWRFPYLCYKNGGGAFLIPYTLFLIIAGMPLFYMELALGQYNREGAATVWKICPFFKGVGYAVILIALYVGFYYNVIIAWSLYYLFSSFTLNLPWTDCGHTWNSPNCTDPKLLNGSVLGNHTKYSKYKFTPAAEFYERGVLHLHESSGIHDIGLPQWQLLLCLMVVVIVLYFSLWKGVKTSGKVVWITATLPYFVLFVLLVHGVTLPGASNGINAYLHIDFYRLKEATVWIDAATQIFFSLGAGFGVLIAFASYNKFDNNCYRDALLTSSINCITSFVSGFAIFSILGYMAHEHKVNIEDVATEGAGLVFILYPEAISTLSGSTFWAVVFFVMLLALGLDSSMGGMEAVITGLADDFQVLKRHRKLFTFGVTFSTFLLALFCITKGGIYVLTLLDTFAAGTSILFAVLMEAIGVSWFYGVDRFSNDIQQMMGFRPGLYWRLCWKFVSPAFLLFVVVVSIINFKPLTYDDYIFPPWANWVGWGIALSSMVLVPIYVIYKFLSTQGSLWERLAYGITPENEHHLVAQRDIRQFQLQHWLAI
The target of a further data set is T1, Estrogen receptor (Homo sapiens, UniProt P03372).
T1 sequence (P03372 whole entry): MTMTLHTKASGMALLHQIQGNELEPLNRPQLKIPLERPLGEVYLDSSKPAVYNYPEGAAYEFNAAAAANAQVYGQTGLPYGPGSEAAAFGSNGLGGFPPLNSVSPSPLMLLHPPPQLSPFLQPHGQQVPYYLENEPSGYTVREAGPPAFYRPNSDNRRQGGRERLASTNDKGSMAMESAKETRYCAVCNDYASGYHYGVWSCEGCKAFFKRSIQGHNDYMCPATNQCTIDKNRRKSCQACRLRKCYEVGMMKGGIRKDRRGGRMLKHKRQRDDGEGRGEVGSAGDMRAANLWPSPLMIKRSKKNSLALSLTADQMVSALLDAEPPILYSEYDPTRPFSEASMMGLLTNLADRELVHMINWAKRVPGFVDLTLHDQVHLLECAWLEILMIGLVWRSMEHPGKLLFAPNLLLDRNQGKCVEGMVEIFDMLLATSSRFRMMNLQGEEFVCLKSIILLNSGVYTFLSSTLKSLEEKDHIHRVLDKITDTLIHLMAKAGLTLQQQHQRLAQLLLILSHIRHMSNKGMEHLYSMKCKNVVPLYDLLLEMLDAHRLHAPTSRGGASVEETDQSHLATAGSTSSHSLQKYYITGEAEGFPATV
To be noted: sf9.

The next data set addresses Estrogen receptor beta (Homo sapiens, UniProt Q92731). Conditions: sf9.
A further data set deals with T2, Cytochrome P450 1A2 (Homo sapiens, UniProt P05177).
T2 sequence (P05177 whole entry): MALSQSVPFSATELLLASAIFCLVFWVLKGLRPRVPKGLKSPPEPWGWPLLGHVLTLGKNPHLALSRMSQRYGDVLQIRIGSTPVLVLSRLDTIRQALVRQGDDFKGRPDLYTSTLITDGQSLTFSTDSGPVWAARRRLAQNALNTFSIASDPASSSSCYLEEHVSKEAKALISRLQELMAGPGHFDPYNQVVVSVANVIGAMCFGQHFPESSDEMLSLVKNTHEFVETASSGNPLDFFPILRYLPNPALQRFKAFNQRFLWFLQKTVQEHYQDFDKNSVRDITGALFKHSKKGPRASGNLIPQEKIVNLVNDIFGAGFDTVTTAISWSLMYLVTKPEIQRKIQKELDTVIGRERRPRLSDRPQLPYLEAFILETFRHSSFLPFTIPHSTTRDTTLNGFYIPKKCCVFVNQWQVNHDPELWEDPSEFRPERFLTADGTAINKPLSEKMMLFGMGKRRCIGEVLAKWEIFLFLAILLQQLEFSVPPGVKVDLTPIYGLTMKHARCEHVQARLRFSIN

Another data set has as its target Cytochrome P450 3A4 (Homo sapiens, UniProt P08684). Conditions: bti-tn-5b1-4. Note: in other assays of this panel Not Active means under 50% inhibition at 10 µM.

Sequence of Cytochrome P450 2C9 (P11712 whole entry): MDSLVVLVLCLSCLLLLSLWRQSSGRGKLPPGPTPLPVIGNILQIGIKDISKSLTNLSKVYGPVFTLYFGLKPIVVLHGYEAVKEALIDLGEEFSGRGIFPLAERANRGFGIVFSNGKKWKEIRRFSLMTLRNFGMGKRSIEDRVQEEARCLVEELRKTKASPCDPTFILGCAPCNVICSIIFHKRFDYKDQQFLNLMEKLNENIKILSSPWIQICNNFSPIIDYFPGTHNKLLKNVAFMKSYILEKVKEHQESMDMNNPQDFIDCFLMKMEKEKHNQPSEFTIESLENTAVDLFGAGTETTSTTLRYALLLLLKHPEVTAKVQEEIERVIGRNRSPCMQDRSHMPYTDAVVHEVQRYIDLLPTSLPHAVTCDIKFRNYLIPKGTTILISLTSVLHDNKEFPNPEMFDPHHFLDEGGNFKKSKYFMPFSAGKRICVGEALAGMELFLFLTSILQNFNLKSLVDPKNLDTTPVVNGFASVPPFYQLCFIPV
Sequence of Cytochrome P450 2C19 (P33261 whole entry): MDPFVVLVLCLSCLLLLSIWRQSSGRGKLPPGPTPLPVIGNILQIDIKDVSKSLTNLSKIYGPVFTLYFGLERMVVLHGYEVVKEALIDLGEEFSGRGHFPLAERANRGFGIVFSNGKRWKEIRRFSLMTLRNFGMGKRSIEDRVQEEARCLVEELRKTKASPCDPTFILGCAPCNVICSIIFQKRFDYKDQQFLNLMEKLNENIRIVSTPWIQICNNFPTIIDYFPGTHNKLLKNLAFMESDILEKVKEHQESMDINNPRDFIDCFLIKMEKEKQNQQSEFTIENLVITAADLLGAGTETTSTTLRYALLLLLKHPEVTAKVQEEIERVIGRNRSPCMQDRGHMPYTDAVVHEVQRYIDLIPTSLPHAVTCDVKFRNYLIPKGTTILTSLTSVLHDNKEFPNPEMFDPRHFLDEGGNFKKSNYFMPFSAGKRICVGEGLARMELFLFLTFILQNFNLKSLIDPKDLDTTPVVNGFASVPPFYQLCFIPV
Sequence of Cytochrome P450 3A4 (P08684 whole entry): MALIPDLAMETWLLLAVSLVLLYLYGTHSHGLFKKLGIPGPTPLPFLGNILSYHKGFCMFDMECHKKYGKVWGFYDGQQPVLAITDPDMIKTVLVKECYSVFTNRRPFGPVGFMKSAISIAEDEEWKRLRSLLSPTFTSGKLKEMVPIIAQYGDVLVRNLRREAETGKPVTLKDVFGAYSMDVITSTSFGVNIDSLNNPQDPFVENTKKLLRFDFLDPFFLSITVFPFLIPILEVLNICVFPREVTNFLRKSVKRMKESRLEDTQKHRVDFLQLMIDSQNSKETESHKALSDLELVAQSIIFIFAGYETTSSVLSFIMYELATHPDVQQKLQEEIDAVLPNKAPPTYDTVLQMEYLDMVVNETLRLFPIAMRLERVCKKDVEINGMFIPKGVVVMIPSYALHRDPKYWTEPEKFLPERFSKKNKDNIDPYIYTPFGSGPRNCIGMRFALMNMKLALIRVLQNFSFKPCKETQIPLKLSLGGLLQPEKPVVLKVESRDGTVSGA
Sequence of Estrogen receptor beta (Q92731 whole entry): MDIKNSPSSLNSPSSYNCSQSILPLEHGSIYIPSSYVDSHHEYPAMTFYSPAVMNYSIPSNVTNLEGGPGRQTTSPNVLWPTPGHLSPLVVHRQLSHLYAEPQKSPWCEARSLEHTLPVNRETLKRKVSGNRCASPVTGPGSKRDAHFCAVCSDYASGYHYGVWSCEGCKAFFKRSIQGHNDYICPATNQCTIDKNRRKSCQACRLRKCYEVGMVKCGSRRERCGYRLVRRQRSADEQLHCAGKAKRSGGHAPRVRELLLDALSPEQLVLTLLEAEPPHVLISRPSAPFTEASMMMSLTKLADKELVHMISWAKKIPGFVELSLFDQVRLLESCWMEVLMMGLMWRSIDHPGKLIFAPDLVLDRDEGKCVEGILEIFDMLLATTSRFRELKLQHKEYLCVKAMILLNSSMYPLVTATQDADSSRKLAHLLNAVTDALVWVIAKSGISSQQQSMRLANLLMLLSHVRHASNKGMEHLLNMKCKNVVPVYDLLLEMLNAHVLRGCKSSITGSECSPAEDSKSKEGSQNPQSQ
Sequence of Cytochrome P450 2D6 (P10635 whole entry): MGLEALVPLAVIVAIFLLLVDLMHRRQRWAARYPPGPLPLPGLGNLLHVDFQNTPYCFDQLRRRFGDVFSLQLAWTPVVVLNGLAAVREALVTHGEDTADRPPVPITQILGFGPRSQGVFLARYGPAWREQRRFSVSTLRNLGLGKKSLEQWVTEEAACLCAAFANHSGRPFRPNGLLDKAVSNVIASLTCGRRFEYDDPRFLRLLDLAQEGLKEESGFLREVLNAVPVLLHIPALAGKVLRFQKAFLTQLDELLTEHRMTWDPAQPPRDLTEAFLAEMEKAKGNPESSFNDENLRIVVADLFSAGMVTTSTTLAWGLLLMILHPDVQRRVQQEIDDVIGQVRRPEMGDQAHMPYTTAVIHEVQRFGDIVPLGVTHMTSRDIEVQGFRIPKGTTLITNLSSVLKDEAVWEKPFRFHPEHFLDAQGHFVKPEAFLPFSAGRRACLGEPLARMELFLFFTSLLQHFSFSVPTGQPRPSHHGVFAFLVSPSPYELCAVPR

One may read the pIC50 as the negative decadic logarithm of the IC50, by convention in mol/L. The pKi is the Ki on a negative log10 scale, so that one unit is a factor of ten. `Clc1ccccc1C(c1ccccc1)(c1ccccc1)n1ccnc1` [CLOTRIMAZOLE]: the pIC50 in data set [1] (read-out: IC50) was 5.10; at Cytochrome P450 2C19, 7.80; against Cytochrome P450 2C9, 7.80. Besides, the pKi in data set [1] (read-out: Ki) is 5.10. Also, the IC50 entry against Estrogen receptor and on Estrogen receptor beta was “Not Active” throughout.
As for `NNc1ccccc1` [PHENYLHYDRAZINE], the IC50 result (in data set [1]; against Estrogen receptor beta) was “Not Active” each time. Further, the pIC50 against Cytochrome P450 1A2 is 5.10; against Cytochrome P450 2C19, 5.30; against Cytochrome P450 2C9, 5.22; at Cytochrome P450 2D6, 5.52.
Regarding `C[C@]12Cc3c[nH]nc3C[C@@H]1CC[C@@H]1[C@@H]2CC[C@@]2(C)[C@H]1CC[C@]2(C)O` [STANOZOLOL], the IC50 entry (in data set [1]; against Cytochrome P450 3A4) was “Not Active” each time. Further, the pIC50 is 7.32 against Cytochrome P450 2C19, 5.95 against Cytochrome P450 2C9 and 5.03 at Cytochrome P450 2D6. The Ki entry on Cytochrome P450 3A4 is reported as “Not Active”.
